Assay results taken from ChEMBL document CHEMBL1147502, “Isopropyl amide derivatives of potent and selective muscarinic M2 receptor antagonists” (Bioorg Med Chem Lett, 2004).

Molecular target: T1, Muscarinic acetylcholine receptor M2 (Homo sapiens, UniProt P08172)
T1 sequence (P08172 whole entry): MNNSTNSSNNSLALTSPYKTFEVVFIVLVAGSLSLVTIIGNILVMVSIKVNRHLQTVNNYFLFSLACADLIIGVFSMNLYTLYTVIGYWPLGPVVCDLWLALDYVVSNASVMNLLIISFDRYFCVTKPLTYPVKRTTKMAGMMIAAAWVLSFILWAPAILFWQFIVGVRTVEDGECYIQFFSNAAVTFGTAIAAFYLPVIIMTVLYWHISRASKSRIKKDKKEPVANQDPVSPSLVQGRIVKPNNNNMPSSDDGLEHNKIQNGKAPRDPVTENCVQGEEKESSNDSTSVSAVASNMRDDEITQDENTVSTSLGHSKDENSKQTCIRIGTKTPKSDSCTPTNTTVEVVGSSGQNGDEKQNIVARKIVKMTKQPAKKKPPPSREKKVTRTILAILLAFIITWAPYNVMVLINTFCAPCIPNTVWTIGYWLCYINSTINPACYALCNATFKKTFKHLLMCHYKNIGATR
Test: Binding affinity against cloned human muscarinic acetylcholine receptor M2.

| Structure (SMILES) | Ki [nM] |
| --- | --- |
| Cc1ccccc1C(=O)N1CCC(N2CCC(C3(c4ccc(C(=O)NC(C)C)cc4)OCCO3)CC2)CC1 | 9 |
| CC(C)(C)NC(=O)c1ccc(CC2CCN(C3CCN(C(=O)c4ccc(F)c5ccccc45)CC3)CC2)cc1 | 18 |
| CC(C)NC(=O)c1ccc(CC2CCN(C3CCN(C(=O)c4ccc5[nH]ccc5c4)CC3)CC2)cc1 | 5 |
| CC(C)NC(=O)c1ccc(CC2CCN(C3CCN(C(=O)c4cccc5[nH]ccc45)CC3)CC2)cc1 | 1.6 |
| Cc1cccc(C(=O)N2CCC(N3CCC(C4(c5ccc(C(=O)NC(C)C)cc5)OCCO4)CC3)CC2)c1N | 2.7 |
| Cc1ccccc1C(=O)N1CCC(N2CCC(Cc3ccc(C(=O)NC(C)C)cc3)CC2)CC1 | 7 |
| O=C(Nc1ccccc1)c1ccc(CC2CCN(C3CCN(C(=O)c4ccc(F)c5ccccc45)CC3)CC2)cc1 | 104 |
| Cc1cccc(C(=O)N2CCC(N3CCC(Cc4ccc(C(=O)NC(C)C)cc4)CC3)CC2)c1N | 9 |
| CC(C)NC(=O)c1ccc(CC2CCN(C3CCN(C(=O)c4ccccc4N)CC3)CC2)cc1 | 78 |
| CC(C)NC(=O)c1ccc(CC2CCN(C3CCN(C(=O)c4c[nH]c5ccccc45)CC3)CC2)cc1 | 6 |
| CC(C)NC(=O)c1ccc(CC2CCN(C3CCN(C(=O)c4ccccc4Cl)CC3)CC2)cc1 | 12 |
| CC(C)NC(=O)c1ccc(C2(C3CCN(C4CCN(C(=O)c5ccc(F)c6ccccc56)CC4)CC3)OCCO2)cc1 | 2.4 |
| Cc1c(N)cccc1C(=O)N1CCC(N2CCC(Cc3ccc(C(=O)NC(C)C)cc3)CC2)CC1 | 1.6 |
| Cc1ccccc1C(=O)N1CCC(N2CCC(Cc3ccc(C(=O)NC4CCCCC4)cc3)CC2)CC1 | 15 |
| CC(C)NC(=O)c1ccc(CC2CCN(C3CCN(C(=O)c4cccc5c(F)cc(F)cc45)CC3)CC2)cc1 | 5 |
| CC(C)NC(=O)c1ccc(CC2CCN(C3CCN(C(=O)c4ccc(F)c5ccccc45)CC3)CC2)cc1 | 2.1 |
| Cc1c(N)cccc1C(=O)N1CCC(N2CCC(C3(c4ccc(C(=O)NC(C)C)cc4)OCCO3)CC2)CC1 | 1.9 |
| CC(C)NC(=O)c1ccc(C2(C3CCN(C4CCN(C(=O)c5ccccc5Cl)CC4)CC3)OCCO2)cc1 | 35 |
| CC(C)NC(=O)c1ccc(CC2CCN(C3CCN(C(=O)c4ccc(F)c5c(F)cccc45)CC3)CC2)cc1 | 9 |
| Cc1ccccc1C(=O)N1CCC(N2CCC(Cc3ccc(C(=O)Nc4ccccc4)cc3)CC2)CC1 | 122 |
| Cc1ccccc1C(=O)N1CCC(N2CCC(Cc3ccc(C(=O)NC(C)(C)C)cc3)CC2)CC1 | 106 |
| CC(C)S(=O)(=O)c1ccc(CC2CCN(C3CCN(C(=O)c4ccc(F)c5ccccc45)CC3)CC2)cc1 | 17 |
| CC(C)NC(=O)c1ccc(C2(C3CCN(C4CCN(C(=O)c5cccc6[nH]ccc56)CC4)CC3)OCCO2)cc1 | 1.1 |
| O=C(NC1CCCCC1)c1ccc(CC2CCN(C3CCN(C(=O)c4ccc(F)c5ccccc45)CC3)CC2)cc1 | 1300 |
| CC(C)NC(=O)c1ccc(CC2CCN(C3CCN(C(=O)c4cccc5nc[nH]c45)CC3)CC2)cc1 | 27 |
| CC(C)NC(=O)c1ccc(CC2CCN(C3CCN(C(=O)c4ccnc5ccccc45)CC3)CC2)cc1 | 40 |
